# From paper PMC10856618, “Research on the Interaction Mechanism and Structural Changes in Human Serum Albumin with Hispidin Using Spectroscopy and Molecular Docking” (Molecules, 2024)
# Target: T1, human serum albumin (HSA) (Homo sapiens, UniProt P02768)
# T1 construct: gene ALB; commercial HSA (Solarbio), mature plasma protein, 585 residues, 66,500 Da
# Assay: intrinsic fluorescence quenching titration (ex […] nm)
# Type: binding
# Settings: 298 K, pH 7.4 Tris-HCl, 0.1 mol/L NaCl, 5 µmol/L HSA; n = 1.04; double-log; mainly site I (subdomain IIA)
# T1 sequence (P02768 25-609): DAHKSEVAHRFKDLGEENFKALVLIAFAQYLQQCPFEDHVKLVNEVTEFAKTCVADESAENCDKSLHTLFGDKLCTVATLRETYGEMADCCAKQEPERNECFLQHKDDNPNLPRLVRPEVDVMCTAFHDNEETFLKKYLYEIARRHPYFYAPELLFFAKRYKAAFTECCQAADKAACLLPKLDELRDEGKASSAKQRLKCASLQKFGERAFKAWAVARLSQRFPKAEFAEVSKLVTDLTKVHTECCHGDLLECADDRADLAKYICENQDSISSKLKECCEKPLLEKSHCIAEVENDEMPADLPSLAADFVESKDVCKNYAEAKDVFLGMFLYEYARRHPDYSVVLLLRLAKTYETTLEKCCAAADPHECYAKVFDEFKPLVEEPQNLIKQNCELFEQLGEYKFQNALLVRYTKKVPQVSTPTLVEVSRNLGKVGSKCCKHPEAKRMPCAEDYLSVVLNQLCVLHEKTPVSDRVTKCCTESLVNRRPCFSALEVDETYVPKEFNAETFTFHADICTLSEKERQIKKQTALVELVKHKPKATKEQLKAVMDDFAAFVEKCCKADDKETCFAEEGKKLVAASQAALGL
compound,measurement,value
O=c1cc(O)cc(/C=C/c2ccc(O)c(O)c2)o1 [hispidin],Ka (10^5 L/mol),1.03 × 10^5 L/mol
